Among the data in patent US7211417B2, “Antibiotic P175-A and semisynthetic derivatives thereof” (priority 2003, dated 2007) are MIC values, retold here.

In brackets after ≈: the same amount, converted by molar mass. Read-outs that look alike come from different tables or passages of the source.

What all share (assay type): cell-based
Test [1] deals with Escherichia coli (imp). In words: MIC by broth dilution, Escherichia coli (imp). As for the experimental part:
(§1) The minimal inhibitory concentration (MIC), the lowest concentration of the antibiotic which inhibits growth of the test organism, is determined by the broth dilution method using Muller-Hinton II […] (Baltimore Biological Laboratories) following the recommendations of the National Committee for Clinical Laboratory Standards [Methods for dilution antimicrobial susceptibility tests for bacteria that grow aerobically. Approved standard M7-A2. National Committee for Clinical Laboratory Standards, Villanova, Pa.].
(§2) An inoculum level of 5×10^5 CFU/ml, and a range of antibiotic concentrations (64–0.06 μg/ml) is used. The MIC is determined after the microtiter plates are incubated for 18 hours at 35° C. in an ambient air incubator. The test organisms comprise a spectrum of the Gram-positive bacteria Staphylococcus aureus, Streptococcus pneumoniae, and Enterococcus sp., the Gram-negative bacteria Escherichia coli, and the yeast Candida albicans. These organisms include recent clinical isolates that are resistant to methicillin and vancomycin.
A general note: In broth dilution the organism is exposed to a series of concentrations in liquid medium.

The test system of test [2] is Staphylococcus aureus. Briefly: MIC by broth dilution, Staphylococcus aureus. As to the method: as §1, §2
Test [3] deals with Enterococcus faecalis. In words: MIC by broth dilution, Enterococcus faecalis. As for the experimental part: as §1, §2
In test [4] the test system is Escherichia coli. In words: MIC by broth dilution, Escherichia coli. As for the experimental part: as §1, §2
Test [5] relates to Streptococcus pneumoniae GC 1894. Briefly: MIC by broth dilution, Streptococcus pneumoniae GC 1894. As to the method: as §1, §2
The subject of test [6] is Bacillus subtilis. In words: MIC by broth dilution, Bacillus subtilis.
Test [7] relates to Candida albicans. Briefly: MIC by broth dilution, Candida albicans. As for the experimental part:
as §1, §2

Where [8] appears, read: 3 strains, including a methicillin-resistant strain (MRSA), 18 hours at 35° C., read-out: MIC.
Setting [9] is: 2 strains, including a vancomycin-resistant strain (VRE), 18 hours at 35° C., read-out: MIC.
Where [10] appears, read: Streptococcus pneumoniae, GC1894, Streptococcus pneumoniae GC 1894* (5% LHB), read-out: MIC.
[11] abbreviates: Streptococcus pneumoniae, GC1894, Streptococcus pneumoniae GC 1894+ (THY), read-out: MIC.

As to `COc1c2ccc3c(=O)c4cc(C)n(CC(=O)N5CC(C(=O)O)NC(=O)C5C)c(=O)c4c(=O)c3c2c(O)c2c(=O)c3cccc(OCC(=O)O)c3c(=O)c12` (centres unmarked) [Example 9D], the minimal inhibitory concentration (MIC) was more than 64 µg/mL in test [1]; 8 to 16 µg/mL (≈ 10.8 to 21.7 µM) in test [2] (setting [8]); 8 µg/mL (≈ 10.8 µM) in test [3] (setting [9]); more than 64 µg/mL in test [4] (read-out: MIC); more than 64 µg/mL in test [5] (setting [10]); 64 µg/mL (≈ 86.8 µM) in test [5] (setting [11]). Besides, the MIC was 8 µg/mL (≈ 10.8 µM) in test [6] (read-out: MIC) and more than 64 µg/mL in test [7] (read-out: MIC).

For `COC(=O)C1CN(C(=O)Cn2c(C)cc3c(=O)c4ccc5c(OC)c6c(=O)c7c(O)cccc7c(=O)c6c(O)c5c4c(=O)c3c2=O)C(C)C(=O)N1` (centres unmarked) [Example 4, P175-A methyl ester], the MIC is 4 µg/mL (≈ 5.77 µM) in test [1]; 0.06 to 0.12 µg/mL (≈ 0.0865 to 0.173 µM) in test [2] (setting [8]); less than 0.06 µg/mL in test [3] (setting [9]); more than 64 µg/mL in test [4] (read-out: MIC); 1 µg/mL (≈ 1.44 µM) in test [5] (setting [10]); 2 µg/mL (≈ 2.88 µM) in test [5] (setting [11]). Also, the figures for the minimum inhibitory concentration (MIC) in test [6] (read-out: MIC) and in test [7] (read-out: MIC) were 0.12 µg/mL (≈ 0.173 µM) and more than 64 µg/mL, respectively.

For the compound `COc1c2ccc3c(=O)c4cc(C)n(CC(=O)N5CC(C(=O)O)NC(=O)C5C)c(=O)c4c(=O)c3c2c(O)c2c(=O)c3cccc(O)c3c(=O)c12` (centres unmarked) [Example 3, P175-A], the minimum inhibitory concentration (MIC) in test [1] was 8 µg/mL (≈ 11.8 µM); in test [2] (setting [8]) it was 0.06 to 0.25 µg/mL (≈ 0.0883 to 0.368 µM); in test [3] (setting [9]), less than 0.06 µg/mL; in test [4] (read-out: MIC) it was more than 64 µg/mL; in test [5] (setting [10]), 16 µg/mL (≈ 23.5 µM); in test [5] (setting [11]), 8 µg/mL (≈ 11.8 µM). Moreover, the results for the MIC in test [6] (read-out: MIC) and in test [7] (read-out: MIC) were 0.12 µg/mL (≈ 0.177 µM) and more than 64 µg/mL, respectively.

On to `COc1c2ccc3c(=O)c4cc(C)n(CC(=O)N5CC(C(=O)OC(C)C)NC(=O)C5C)c(=O)c4c(=O)c3c2c(O)c2c(=O)c3cccc(O)c3c(=O)c12` (centres unmarked) [Example 6, P175-A isopropyl ester], for which the MIC in test [1] was 16 µg/mL (≈ 22.2 µM); in test [2] (setting [8]) it was 1 to 4 µg/mL (≈ 1.39 to 5.54 µM); in test [3] (setting [9]), 4 µg/mL (≈ 5.54 µM); in test [4] (read-out: MIC), more than 64 µg/mL; in test [5] (setting [10]), 2 µg/mL (≈ 2.77 µM); in test [5] (setting [11]) it was 4 µg/mL (≈ 5.54 µM). Besides, the MIC is 8 µg/mL (≈ 11.1 µM) in test [6] (read-out: MIC) and more than 64 µg/mL in test [7] (read-out: MIC).

As for `COc1c2ccc3c(=O)c4cc(C)n(CC(=O)N5CC(C(=O)OCc6ccccc6)NC(=O)C5C)c(=O)c4c(=O)c3c2c(O)c2c(=O)c3cccc(O)c3c(=O)c12` (centres unmarked) [Example 7, P175-A benzyl ester], the minimal inhibitory concentration (MIC) in test [1] was 32 µg/mL (≈ 41.6 µM); in test [2] (setting [8]), 0.12 to 2 µg/mL (≈ 0.156 to 2.6 µM); in test [3] (setting [9]) it was 2 to 8 µg/mL (≈ 2.6 to 10.4 µM); in test [4] (read-out: MIC), more than 64 µg/mL; in test [5] (setting [10]), 0.5 µg/mL (≈ 0.65 µM); in test [5] (setting [11]) it was 0.25 µg/mL (≈ 0.325 µM). The results for the MIC in test [6] (read-out: MIC) and in test [7] (read-out: MIC) were 4 µg/mL (≈ 5.2 µM) and more than 64 µg/mL, respectively.

With `CCOC(=O)C1CN(C(=O)Cn2c(C)cc3c(=O)c4ccc5c(OC)c6c(=O)c7c(O)cccc7c(=O)c6c(O)c5c4c(=O)c3c2=O)C(C)C(=O)N1` (centres unmarked) [Example 5, P175-A ethyl ester], the MIC is 16 µg/mL (≈ 22.6 µM) in test [1]; 0.06 to 0.12 µg/mL (≈ 0.0848 to 0.17 µM) in test [2] (setting [8]); 0.25 to 0.5 µg/mL (≈ 0.353 to 0.707 µM) in test [3] (setting [9]); more than 64 µg/mL in test [4] (read-out: MIC); 0.5 µg/mL (≈ 0.707 µM) in test [5] (setting [10]); 1 µg/mL (≈ 1.41 µM) in test [5] (setting [11]). In addition, the MIC in test [6] (read-out: MIC) was 0.25 µg/mL (≈ 0.353 µM); in test [7] (read-out: MIC), more than 64 µg/mL.

As for `COC(=O)COC(=O)C1CN(C(=O)Cn2c(C)cc3c(=O)c4ccc5c(OC)c6c(=O)c7c(O)cccc7c(=O)c6c(O)c5c4c(=O)c3c2=O)C(C)C(=O)N1` (centres unmarked) [Example 8A], the MIC in test [1] is 8 µg/mL (≈ 10.6 µM); in test [2] (MRSA, 18 h) it was 0.5 to 2 µg/mL (≈ 0.665 to 2.66 µM); in test [3] (VRE, 18 h), 0.5 to 1 µg/mL (≈ 0.665 to 1.33 µM); in test [4], more than 64 µg/mL; in test [5] (Streptococcus pneumoniae GC 1894+ (THY)) it was 64 µg/mL (≈ 85.1 µM); in test [5] (Streptococcus pneumoniae, GC1894), 64 µg/mL (≈ 85.1 µM). Besides, the MIC in test [6] was 1 µg/mL (≈ 1.33 µM); in test [7], more than 64 µg/mL.

Usually MIC stands for the lowest concentration that inhibits growth of the organism.
